What was measured:
GK rats [1] = experiment: Preventative effects on diabetes mellitus in GK rats prior to the crisis of diabetes (drug mixed in food, 8 weeks); format: in vivo, rat
Source text: 6-week-old GK rats (Charles River Japan, Inc.) which were prior to the crisis of diabetes mellitus, were used. Compound A was mixed with food powder for the rat (F2, Funabashi Farm Co.,) at concentrations of 0.04%, 0.2% and 1.0% (w/w) and was orally administered to 4-6 rats per group for 8 weeks ad libitum (the mean amount of food intake per rat: 17.3 g/day).
The rats in the control group were fed with only food powder.
Blood from each rat was collected from the tail vein every 2 weeks, and the blood glucose level, plasma lactate level and plasma triglyceride level were determined. Blood glucose level was determined by electric potential measurement method based on glucose oxidase immobilized electrode using Glucoloader GXT (A&T Corp.). Plasma lactate level was determined using a spectrophotometric method with Lactate Reagent (Sigma-Aldrich Japan K. K.), and plasma triglyceride level was determined using a spectrophotometric method with Triglyceride E Test Wako (Wako Pure Chemical Industries, Ltd.). When the blood was collected after the drug administration period and the drug withdrawal period for 2 weeks, glycosylated hemoglobin ratio was also determined with DCA-2000 (Bayer Medical Co., Ltd.).

GK rats [2] = experiment: Improving effects on impaired glucose tolerance: oral glucose load in fasted GK rats, AUC of blood glucose; format: in vivo, rat; conditions: 2 g/kg glucose 1 hour later
Procedure: 6-week-old GK rats of (Charles River Japan, Inc.) which show IGT symptoms, but not diabetes mellitus, were fasted overnight. Compound A was orally administered at dosages of 10, 20 or 40 mg/kg. Two gram per kilogram of 50% (w/w) glucose solution was orally administered 1 hour after the administration of Compound A. The rats in the control group were administered orally 2 g/kg of 50% (w/w) glucose solution only.
The blood was collected from the tail vein just before and 0.5, 1, 2 and 4 hours after the glucose administration. Blood glucose level was determined by electric potential measurement method based on a glucose oxidase immobilized electrode using Glucoloader GXT (A&T Corp.).
On the abscissas, the time after the administration of Compound A was plotted, and on the ordinate, the blood glucose level of each individual was plotted. Each point was drawn with a straight line. The areas under the curves (AUCs) for the blood glucose levels of the graph obtained were calculated.
Using the areas under the curves (AUCs) for the blood glucose levels, the average value and standard error of each group were calculated. […]
The blood was collected from the tail vein just before and 0.5, 1 and 2 hours after the glucose administration. Blood glucose level was determined by electric potential measurement method based on a glucose oxidase immobilized electrode using Glucoloader GXT (A&T Corp.). […]

patients = patients treated with metformin; N Engl J Med 346, 393-403 (2002); cited from earlier work

CCOC(=O)[C@H](C)NP(=O)(N[C@@H](C)C(=O)OCC)c1ccc(-c2nc(N)sc2CC(C)C)o1 [Compound A, 2-amino-5-isobutyl-4-{2-[5-(N,N′-bis((S)-1-ethoxycarbonyl)ethyl)phosphonamido]furanyl}thiazole]
increase in the blood glucose level (GK rats [1]; 6-week-old GK rats, 0.04%, 0.2% and 1.0% (w/w) in food, oral, 8 weeks, FIG. 1): inhibited in a dose-dependent manner
glycosylated hemoglobin ratio (GK rats [1]; GK rats, after 8 weeks of 0.04%, 0.2% and 1.0% (w/w) in food, FIG. 2): decreased in a dose-dependent manner
gastrointestinal symptoms such as diarrhea (GK rats [1]; GK rats, all the groups examined): no animal suffered gastrointestinal symptoms such as diarrhea
blood glucose level after the drug administration period was terminated (GK rats [1]; GK rats, drug withdrawal period 2 weeks, FIG. 1): attained the same maximum level as that in the control group
glycosylated hemoglobin ratio after withdrawal of administration (GK rats [1]; GK rats, drug withdrawal period 2 weeks, FIG. 2): increased to the same level as that in the control group
plasma triglyceride level (GK rats [1]; GK rats, during the administration period, FIG. 3): not increased as much as those in the control rats or was prevented from increase
plasma lactate level (GK rats [1]; GK rats, during the administration period, versus control group, FIG. 4): not significantly different from the control group
AUCs of the blood glucose levels (GK rats [2]; GK rats fasted overnight, 10, 20 or 40 mg/kg oral, blood to 4 hours, FIG. 5): decreased by the treatment of Compound A in a dose-dependent manner

CCOc1cc2ncnc(Nc3cccc(-c4csc(C)n4)c3)c2cc1OCC [Compound B, (6,7-diethoxy-quinazolin-4-yl)-[3-(2-methyl-thiazol-4-yl)phenyl]amine]
AUCs of the blood glucose levels (GK rats [2]; GK rats fasted overnight, 100 mg/kg or 300 mg/kg oral, blood to 2 hours, FIG. 6): decreased by the treatment of Compound B in a dose-dependent manner

CN(C)C(=N)N=C(N)N [metformin]
patients with gastrointestinal symptoms such as diarrhea (patients): approximately 80%

Reference: US20050187194A1, “Preventive agents for diabetes mellitus” (SANKYO COMPANY LIMITED, priority 2002, published 2005)
